US20150224085A1, “METHOD OF ADMINISTERING A 5,5-FUSED HETEROARYLENE HEPATITIS C VIRUS INHIBITOR FOR TREATING OF PREVENTING HEPATITIS C VIRUS INFECTION” (priority 2012, published 2015)
≈ marks a conversion by molar mass, not a printed value. Where “and” joins values, the source holds several entries; their conditions need not be identical. Identical values can stand only once. Like-named read-outs stand apart in the source and are kept apart here.

What was measured:
[1] = test system: HCV Genotype 4; assay: Phase I/IIa Group D: HCV RNA reduction, 3-day dosing, Genotype 4; type: in vivo, hepatitis C virus; conditions: n = 4
Description: (§1) The phase I/IIa study was designed to evaluate safety and tolerability, pharmacokinetics (PK), food effect, and antiviral activity with regard to the Compound. The key safety parameters that were evaluated in the trial include adverse events (AEs), physical examination, vital signs, 12-lead electrocardiogram (ECG), and standard safety laboratory tests. The key antiviral activity parameters that were evaluated in the trial include changes in plasma HCV RNA and emergence of resistance mutations. The key pharmacokinetic parameters that were evaluated in the trial include plasma and urine concentrations of the Compound.
(§2) In the phase I/IIa study, plasma HCV RNA was quantitated using a validated commercial assay (COBAS® TAQMAN®) with a lower limit of quantitation of 25 IU/mL. HCV RNA genotyping was performed at Baseline using the Versant HCV Genotype Assay (LiPA) 2.0.
(§3) In Group D, the Compound was evaluated in an randomized, double-blind, placebo-controlled, parallel dosing study in 30 treatment-naive, genotypes 2, 3, and 4 HCV-infected subjects.
(§4) For all cohorts, dosing was under fasted in this study.

[2] = test system: least susceptible HCV genotype; assay: Protein-binding adjusted EC90; type: cell-based; conditions: Hepatitis C virus, read-out: protein-binding adjusted EC90
[3] = Phase I/IIa Groups C and D: safety and tolerability; type: in vivo, human
Description: as §1
(§5) In Group C, the Compound was evaluated in a randomized, double-blind, placebo-controlled, parallel dosing study in 34 treatment-naive, genotype 1 HCV-infected subjects.
as §3, §4

[4] = Phase I/IIa Group A: pharmacokinetics in healthy subjects; type: in vivo, human; conditions: for Cmax / half-life / AUC(0-inf) / Tmax: human, plasma, oral
Description: The phase I/IIa study was designed to evaluate safety and tolerability, pharmacokinetics (PK), food effect, and antiviral activity with regard to the Compound. The key safety parameters that were evaluated in the trial include adverse events (AEs), physical examination, vital signs, 12-lead electrocardiogram (ECG), and standard safety laboratory tests. The key antiviral activity parameters that were evaluated in the trial include changes in plasma HCV RNA and emergence of resistance mutations. The key pharmacokinetic parameters that were evaluated in the trial include plasma and urine concentrations of the Compound. […]
(§6) The Compound was first evaluated in a randomized, double-blind, placebo-controlled, sequential dose escalation study in 48 healthy subjects. For each cohort, there were 6 subjects to receive the Compound and 2 subjects to receive placebo. Except cohort 5a, the Compound was administered under fasted conditions.
For the food effect study (cohort 5a), subjects received a single dose of 50 mg of the Compound or placebo on Days 1 and 8, with a 7 day washout between dosing periods. In the food effect study, the subjects were randomized among two groups, differing by fasted/fed dosing sequences as shown in Table 3.

[5] = in vivo
Description: as §1, §6
(§7) In Group B, the Compound was evaluated in an open-label, single day study in 18 subjects with chronic HCV Genotype 1, 2, or 3 infection. […] For all cohorts, dosing was under fasted in this study.

[6] = test system: HCV Genotype 2; assay: Phase I/IIa Group B: plasma HCV RNA reduction after single dose, Genotype 2; type: in vivo, hepatitis C virus; conditions: 1 subject
Description: as §1, §2, §7

[7] = clinical; conditions: human, in vivo
Description: as §1, §2, §7

[8] = clinical; conditions: human, in vivo; remark: listed apart in the source
Description: as §1, §2, §5, §3, §4

[9] = healthy subjects, 100 mg QD x 7 days, fasted, PK Day 1, mean ± SD
[10] = 5 mg, healthy subjects, 5 mg single dose, fasted, PK Day 1, mean ± SD
[11] = 10 mg, healthy subjects, 10 mg single dose, fasted, PK Day 1, mean ± SD
[12] = 25 mg, healthy subjects, 25 mg single dose, fasted, PK Day 1, mean ± SD
[13] = 50 mg, healthy subjects, 50 mg single dose, fasted, PK Day 1, mean ± SD
[14] = 50 mg, healthy subjects, 50 mg single dose, fed, PK Day 1, mean ± SD
[15] = 100 mg, healthy subjects, 100 mg QD x 7 days, fasted, PK Day 7, mean ± SD
[16] = 100 mg, healthy subjects, 100 mg single dose, fasted, PK Day 1, mean ± SD

## COC(=O)N[C@H](C(=O)N1CCC[C@H]1c1nc2cc(-c3csc4c(-c5ccc(-c6cnc([C@@H]7CCCN7C(=O)[C@H](NC(=O)OC)c7ccccc7)[nH]6)cc5)csc34)ccc2[nH]1)C(C)C [the Compound, [(S)-1-((S)-2-{6-[6-(4-{(S)-2-[1-((R)-2-methoxycarbonylamino-2-phenyl-acetyl)-pyrrolidin-2-yl]-3H-imidazol-4-yl}-phenyl)-thieno[3,2-b]thiophen-3-yl]-1H-benzoimidazol-2-yl}-pyrrolidine-1-carbonyl)-2-methyl-propyl]-carbamic acid methyl ester]
[1]; 50 mg BID x 3 days
  Mean (Range) Maximal HCV RNA Reduction from Baseline: 3.9 (3.4-4.5) log10 IU/mL
[1]; 100 mg QD x 3 days
  Mean (Range) Maximal HCV RNA Reduction from Baseline: 3.6 (2.3-4.6) log10 IU/mL
[2]
  EC90: ~2.3 ng/mL (≈ 2.6 nM)
[3]; Groups C and D
  intensity of adverse events: mild or moderate
  most common adverse events: headache, constipation, and nausea
[3]; Groups C and D, 25 to 100 mg/day x 3 days
  discontinuations and serious adverse events: no safety-related discontinuations or serious adverse events
[3]; daily doses up to 100 mg for 3 days
  safety and tolerability: safe and well tolerated
[4]; 50 mg, after high-fat (about 55 g), high-calorie (about 950 kcal) meal
  reduction of exposure by food: approximately two-thirds
[4]; QD dosing x 7 days
  increase of AUC0-inf upon reaching steady state: approximately 50%
  increase of Ctrough upon reaching steady state: about 70%
[4]; healthy subjects, 5 mg single dose, fasted, PK Day 1, mean ± SD
  Ctrough: 1.6 ± 0.5 ng/mL
[4]; healthy subjects, 10 mg single dose, fasted, PK Day 1, mean ± SD
  Ctrough: 3.7 ± 1.8 ng/mL
[4]; healthy subjects, 25 mg single dose, fasted, PK Day 1, mean ± SD
  Ctrough: 8.1 ± 2.9 ng/mL
[4]; healthy subjects, 50 mg single dose, fasted, PK Day 1, mean ± SD
  Ctrough: 13.4 ± 4.6 ng/mL
[4]; healthy subjects, 50 mg single dose, fed, PK Day 1, mean ± SD
  Ctrough: 5.6 ± 1.3 ng/mL
[4]; [9]
  AUC0-24 (column AUC0-inf, footnote 1): 980 ± 312.4^1 ng · h/mL
  Ctrough: 20.4 ± 9.0 ng/mL
[4]; healthy subjects, 100 mg QD x 7 days, fasted, PK Day 7, mean ± SD
  Ctrough: 34 ng/mL and 34.0 ± 14.4 ng/mL
[4]; healthy subjects, 100 mg single dose, fasted, PK Day 1, mean ± SD
  Ctrough: 17.1 ± 6.2 ng/mL
[4]; healthy volunteers, dose range 5 to 100 mg
  exposure versus dose: Dose proportional exposure
[4]; [10]
  Cmax: 5.1 ± 1.1 ng/mL
  half-life: 21 ± 4.5 h
[4]; 5 mg, healthy subjects, 5 mg single dose, fasted, PK Day 1, mean ± SD, read-out: AUC0-inf
  AUC(0-inf): 110 ± 35.4 ng·h/mL
[4]; 5 mg, healthy subjects, 5 mg single dose, fasted, PK Day 1, median (min-max)
  Tmax: 4 h
[4]; [11]
  Cmax: 11.5 ± 4.3 ng/mL
  half-life: 24 ± 4.7 h
[4]; 10 mg, healthy subjects, 10 mg single dose, fasted, PK Day 1, mean ± SD, read-out: AUC0-inf
  AUC(0-inf): 259 ± 123 ng·h/mL
[4]; 10 mg, healthy subjects, 10 mg single dose, fasted, PK Day 1, median (min-max)
  Tmax: 5 h
[4]; [12]
  Cmax: 26.5 ± 11.1 ng/mL
  half-life: 24 ± 3.2 h
[4]; 25 mg, healthy subjects, 25 mg single dose, fasted, PK Day 1, mean ± SD, read-out: AUC0-inf
  AUC(0-inf): 570 ± 200 ng·h/mL
[4]; 25 mg, healthy subjects, 25 mg single dose, fasted, PK Day 1, median (min-max)
  Tmax: 4 h
[4]; [13]
  Cmax: 50.9 ± 18.1 ng/mL
  half-life: 22 ± 1.7 h
[4]; 50 mg, healthy subjects, 50 mg single dose, fasted, PK Day 1, mean ± SD, read-out: AUC0-inf
  AUC(0-inf): 952 ± 336 ng·h/mL
[4]; 50 mg, healthy subjects, 50 mg single dose, fasted, PK Day 1, median (min-max)
  Tmax: 4 h
[4]; [14]
  Cmax: 13.2 ± 3.3 ng/mL
  half-life: 23 ± 3 h
[4]; 50 mg, healthy subjects, 50 mg single dose, fed, PK Day 1, mean ± SD, read-out: AUC0-inf
  AUC(0-inf): 335 ± 53.9 ng·h/mL
[4]; 50 mg, healthy subjects, 50 mg single dose, fed, PK Day 1, median (min-max)
  Tmax: 6 h
[4]; 100 mg, healthy subjects, 100 mg QD x 7 days, fasted, PK Day 1, mean ± SD
  Cmax: 86.9 ± 25.9 ng/mL
[4]; 100 mg, healthy subjects, 100 mg QD x 7 days, fasted, PK Day 1, median (min-max)
  Tmax: 4 h
[4]; [15]
  Cmax: 117 ± 39.4 ng/mL
  half-life: 21 ± 3.4 h
[4]; 100 mg, healthy subjects, 100 mg QD x 7 days, fasted, PK Day 7, mean ± SD, read-out: AUC0-inf (cell marked with footnote 1)
  AUC(0-inf): 1480 ± 489 ng·h/mL
[4]; 100 mg, healthy subjects, 100 mg QD x 7 days, fasted, PK Day 7, median (min-max)
  Tmax: 3.5 h
[4]; [16]
  Cmax: 83.3 ± 49.1 ng/mL
  half-life: 23 ± 2.7 h
[4]; 100 mg, healthy subjects, 100 mg single dose, fasted, PK Day 1, mean ± SD, read-out: AUC0-inf
  AUC(0-inf): 1290 ± 402 ng·h/mL
[4]; 100 mg, healthy subjects, 100 mg single dose, fasted, PK Day 1, median (min-max)
  Tmax: 4 h
[5]
  dose-limiting toxicity: no subject met protocol-defined criteria for a dose-limiting toxicity
  intensity of adverse events: mild to moderate
[6]; 25 mg single dose
  Maximum Viral Load Reduction after Single Dose: 0.4 log10 IU/mL
[6]; 50 mg single dose
  Maximum Viral Load Reduction after Single Dose: 3.2 log10 IU/mL
[6]; 100 mg single dose
  Maximum Viral Load Reduction after Single Dose: 3.5 log10 IU/mL
[7]
  exposure versus dose: Dose proportional exposure
[7]; 1 mg
  AUC(0-inf): 8 ± 5.8 ng·h/mL
  Cmax: 0.5 ± 0.4 ng/mL
  Tmax: 4 h
  half-life: 13 ± 6 h
[7]; 5 mg
  AUC(0-inf): 39 ± 14.5 ng·h/mL
  Cmax: 2.2 ± 1.1 ng/mL
  Tmax: 4 h
  half-life: 13 ± 0.5 h
[7]; 10 mg
  AUC(0-inf): 188 ± 3.7 ng·h/mL
  Cmax: 9 ± 1.2 ng/mL
  Tmax: 3 h
  half-life: 24 ± 5.9 h
[7]; 25 mg
  AUC(0-inf): 216 ± 80.6 ng·h/mL
  Cmax: 13.8 ± 3.8 ng/mL
  Tmax: 3.5 h
  half-life: 18 ± 3.8 h
[7]; 50 mg
  AUC(0-inf): 576 ± 299 ng·h/mL
  Cmax: 35.2 ± 16.5 ng/mL
  Tmax: 4 h
  half-life: 22 ± 1.8 h
[7]; 100 mg
  AUC(0-inf): 1340 ± 282 ng·h/mL
  Cmax: 95 ± 20.4 ng/mL
  Tmax: 4 h
  half-life: 19 ± 2 h
[8]; 25 mg
  AUC0-24: 235 ± 79.9 ng·h/mL
  Cmax: 20 ± 6.74 ng/mL
  Tmax: 3.9 (3.0-6.0) hr
[8]; 25 mg, AUC0-24
  AUC(0-t): 142 ± 44.5 ng·h/mL
[8]; 25 mg, Cmax
  Cmax: 14 ± 5.19 ng/mL
[8]; 25 mg, Tmax
  Tmax: 3.8 h
[8]; 25 mg, t1/2
  half-life: 20.8 ± 4.06 h
[8]; 50 mg
  AUC(0-t): 384 ± 204 ng·h/mL
  t1/2: 19.7 ± 2.0 h
[8]; 50 mg, AUC0-12
  AUC(0-t): 260 ± 102 ng·h/mL
[8]; 50 mg, AUC0-24
  AUC(0-t): 387 ± 115 ng·h/mL
[8]; 50 mg, Cmax
  Cmax: 32 ± 8.12 ng/mL
[8]; 50 mg, Tmax
  Tmax: 3.4 h
[8]; 50 mg, t1/2
  half-life: 23 ± 3.81 h
[8]; 100 mg
  t1/2: 19.3 ± 2.69 h
[8]; 100 mg, AUC0-24
  AUC(0-t): 410 ± 122 ng·h/mL
[8]; 100 mg, Cmax
  Cmax: 38 ± 8.6 ng/mL
[8]; 100 mg, Tmax
  Tmax: 3.7 h
[8]; 100 mg, t1/2
  half-life: 22.9 ± 3.6 h
[8]; Plasma half-life
  half-life: ~20 h
[8]; Tmax
  Tmax: 3.3 h
[8]; t1/2
  half-life: 19.7 ± 5.7 h
